In patent US20150094348A1, “GPR17-MODULATING COMPOUNDS, DIAGNOSTIC AND THERAPEUTIC USES THEREOF” (Centro Cardiologico Monzino S.p.A., priority 2010, published 2015):
Marks after values point to notes of the source that are not given here.

How the values were obtained:
human receptor GPR17 = target: T1, human receptor GPR17 (Homo sapiens, UniProt Q13304); assay: [35S]GTPγS binding assay on membranes of 1321N1 cells transfected with human GPR17; format: biochemical; conditions: for EC50 / Emax: [35S]GTPγS binding; for EC50: 1321N1 cells expressing human GPR17, mean±SEM of three experiments; for Emax: LTC4 at 100 nM, in % (unit assumed); for % Emax vs standard: efficacy relative to LTC4 set to 100%; for effect of antagonist on concentration-response curve of the compound: in presence of cangrelor or montelukast
T1 construct: expressed in transfected cells; host or cells: human 1321N1 astrocytoma cells, calcium phosphate transfection with pcDNA3.1; plasma membranes used
Description: A—The compounds according to the invention were evaluated for their functional activity on GPR17 using a well-known assay for GPCRs, the [^35S]GTPγS binding assay, which is based on the ability of the agonist to increase radioactive GTP binding when a GPCR is activated. The antagonist activity is evaluated according to the ability to counteract the increased [^35S]GTPγS binding induced by the LTC4 reference agonist.
The activation of GPCRs by agonists stimulates the dissociation of GDP from G-protein, thus increasing GTP binding in its place. This increase in GTP binding to G-protein can be quantified in vitro with [^35S]GTPγS. The effect of GPCR activation on [^35S]GTPγS binding is catalytic, because it increases the [^35S]GTPγS binding rate rather than [^35S]GTPγS binding equilibrium. […] For some GPCRs, the binding stimulated by the agonist (ie. the difference between GTP binding in the presence and absence of the agonist) increases with time, peaks and then falls to zero; optimal increases in [^35S]GTPγS binding induced by the agonist are often obtained before equilibrium is attained, rather than at equilibrium. […] The control and transfected cells were homogenised in 5 mM Tris-HCl and 2 mM EDTA (pH 7.4) and centrifuged at 48000 g for 15 min at 4° C. The resulting pellets (plasma membranes) were washed in 50 mM Tris-HCl and 10 mM MgCl2 (pH 7.4) and stored at −80° C. until use.
The Graph-Pad Prism program was used for the analysis and graphic presentation of the [^35S]GTPγS binding data. All the data are shown as the mean±SEM of three different experiments. The data were tested for statistical significance with the paired Student's t test or analysis of variance (one-way ANOVA), as appropriate. When significant differences were observed, the Newman-Keuls multiple comparison test (one-way ANOVA) was performed. A value of P<0.05 was considered significant.

[1] = [35S]GTPγS binding assay on 1321N1 cells transfected only with control vector pcDNA3.1; format: biochemical, human; conditions: cells transfected only with pcDNA3.1
Description: Human 1321N1 cells were cultured as described [Fumagalli et al., 2004, Biochem Pharmacol 68:113]. For the [^35S]GTPγS assay, 10^6 1321N1 cells were seeded on 75 cm^2 flasks and transfected by the calcium phosphate precipitation method, with the vector pcDNA3.1 containing the construct encoding for human receptor GPR17, and with the empty vector pcDNA3.1 as control [Fumagalli et al., 2004, Biochem Pharmacol 68:113].
The activation of GPCRs by agonists stimulates the dissociation of GDP from G-protein, thus increasing GTP binding in its place. This increase in GTP binding to G-protein can be quantified in vitro with [^35S]GTPγS. The effect of GPCR activation on [^35S]GTPγS binding is catalytic, because it increases the [^35S]GTPγS binding rate rather than [^35S]GTPγS binding equilibrium. Consequently, the [^35S]GTPγS binding assay is intrinsically a functional concentration-response curve, not an equilibrium binding assay [Lazareno, 1999, Methods Mol Biol 1106:231; Milligan, 2003, Trends Pharmacol Ski 24:87]. For some GPCRs, the binding stimulated by the agonist (ie. the difference between GTP binding in the presence and absence of the agonist) increases with time, peaks and then falls to zero; optimal increases in [^35S]GTPγS binding induced by the agonist are often obtained before equilibrium is attained, rather than at equilibrium. […]

[2] = system: oligodendrocyte precursor cells (OPCs); assay: Pro-myelinating activity assay on oligodendrocyte precursor cell (OPC) cultures (MBP-positive cells); format: cell-based, Sprague-Dawley rat; conditions: 48 h after start of treatment
Description: The OPCs were cultured on plates containing 24 mm slides coated with poly-D,L-ornithine in Neurobasal medium with 2% of B27 supplement (Invitrogen), L-glutamine (2 mM) and enriched with growth factors PDGF and betaFGF (10 ng/ml) to promote proliferation. In order to promote differentiation, after 24 h, the culture medium was replaced with Neurobasal with 2% B27 without growth factors and with the addition of triiodothyronine T3 (400 ng/ml).
The ability of the agonists to promote myelination was evaluated by measuring the increase in the number of cells positive for the MBP marker present in the culture compared with the control treated with the carrier alone. In particular, 48 h after treatment with the agonists, the cells were fixed in 4% paraformaldehyde in 0.1 M PBS and stained by immunocytochemistry using an antibody specific for MBP. […] The slides were mounted with Dako Fluorescent Mounting Medium (Dako, Milan) on cover slips and analysed with an inverted optical microscope (AXIOVERT 200 M, Zeiss, Milan). The images were processed and acquired with Axiovision 4.4 software, in the rhodamine fluorescence channel for MBP. The effects of the treatments on OPC myelination were quantified by manual count using ImageJ software (Wayne Rasband, Research Services Branch of the National Institute of Mental Health of Bethesda, USA).

T1 sequence (Q13304 29-367 limits assumed): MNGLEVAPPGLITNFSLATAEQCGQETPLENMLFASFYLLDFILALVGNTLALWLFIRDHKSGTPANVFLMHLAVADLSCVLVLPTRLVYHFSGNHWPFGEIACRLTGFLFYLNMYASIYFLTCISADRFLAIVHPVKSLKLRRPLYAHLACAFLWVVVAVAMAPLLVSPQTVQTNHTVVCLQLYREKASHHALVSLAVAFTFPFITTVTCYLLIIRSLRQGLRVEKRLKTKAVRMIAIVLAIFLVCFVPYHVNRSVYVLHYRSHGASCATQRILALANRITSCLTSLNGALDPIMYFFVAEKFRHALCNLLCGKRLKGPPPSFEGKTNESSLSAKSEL

SMILES	EC50 (human receptor GPR17) [nM]	Emax (human receptor GPR17)	% Emax vs standard (human receptor GPR17)	further results
COc1ccc(-n2c(SC(C)C(=O)Nc3ccccc3)nnc2-c2ccccc2OC)cc1 (centres unmarked) [(I), 2-[[5-(2-methoxyphenyl)-4-(4-methoxyphenyl)-4H-1,2,4-triazol-3-yl]thio]-N-phenylpropanamide]	0.109 ± 0.028	145.6 ± 5.7	100.6%	effect of antagonist on concentration-response curve of the compound (human receptor GPR17): shifted to the right (increase in EC50), but no effect on efficacy was observed; effect of antagonist on concentration-response curve of the compound (human receptor GPR17; listed as I): reduction in the efficacy
COCCn1nnnc1C(c1cc2cc(OC)ccc2[nH]c1=O)N(CCc1ccccc1)Cc1ccccc1 (centres unmarked) [(II), 6-methoxy-3-[[1-(2-methoxyethyl)-1H-tetrazol-5-yl][(2-phenylethyl)(phenylmethyl)-amino]methyl]-2(1H)-quinolinone]	3.67 ± 0.51	206.8 ± 8.3	142.8*** %	
COc1ccc(N(C(=O)Cn2nnc3ccccc32)C(C(=O)NCC2CCCO2)c2ccc(F)cc2)cc1 (centres unmarked) [(IV), N-[1-(4-fluorophenyl)-2-oxo-2-[[(tetrahydro-2-furanyl)methyl]amino]ethyl]-N-(4-methoxyphenyl)-1H-benzotriazol-1-acetamide]	2.27 ± 0.07	173.5 ± 0.5	119.8*** %	
O=C(Nc1ccc(C(F)(F)F)cc1)N1CCC(c2nc(O)c3nnn(Cc4ccccc4Cl)c3n2)CC1 [(V), 4-[3-[(2-chlorophenyl)methyl]-6,7-dihydro-7-oxo-3H-1,2,3-triazole[4,5-d]pyrimidin-5-yl]-N-[4-(trifluoromethyl)phenyl]-1-piperidinecarboxamide]	0.268 ± 0.009	161.5 ± 2.4	111.5** %	
CCCCC/C=C\C\C=C/C=C/C=C/[C@@H](SC[C@H](NC(=O)CC[C@H](N)C(=O)O)C(=O)NCC(=O)O)[C@@H](O)CCCC(=O)O [LTC4, reference compound]		144.8 ± 0.4	100%	response in [35S]GTPγS binding in control-vector cells [1]: unable to induce a response
CCCCC/C=C\C\C=C/C=C/C=C/[C@@H](SC[C@H](N)C(=O)O)[C@@H](O)CCCC(=O)O [LTE4]				pro-myelinating activity, in words (mature cells expressing MBP) [2]: increase the number of mature cells in culture expressing MBP
O=c1ccn([C@@H]2O[C@H](COP(=O)(O)OP(=O)(O)O)[C@@H](O)[C@H]2O)c(=O)[nH]1 [UDP]				pro-myelinating activity, in words (mature cells expressing MBP) [2]: increase the number of mature cells in culture expressing MBP
CSCCNc1nc(SCCC(F)(F)F)nc2c1ncn2[C@@H]1O[C@H](COP(=O)(O)OP(=O)(O)C(Cl)(Cl)P(=O)(O)O)[C@@H](O)[C@H]1O [cangrelor, reference compound]				type of antagonism on concentration-response curves of compound of formula (I) (human receptor GPR17; curves of compound (I) in presence of different concentrations of the antagonist (FIG. 1 C, D)): competitive antagonist
